The text below walks through data of PubChem BioAssay AID1159558 (GlaxoSmithKline (GSK), 2015).

Activity calls are given as the source filed them.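 The calls were made as follows: active = IC50 against T. cruzi CYP51 below a set limit; inactive = the rest.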

For the assay, the target named is Sterol 14-alpha demethylase (Trypanosoma cruzi (strain CL Brener)) (UniProt Q7Z1V1). The experiment in a line: T. cruzi sterol 14-alpha demethylase inhibition – biochemical, recombinant enzyme, mechanism study for T. cruzi antiparasitic project, dose response (AID 1159558).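 Also: enzyme in bacterial membranes with Anopheles gambiae CYP reductase and cytochrome b5 partners.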 To be noted: recombinant T. cruzi CYP51, BOMCC fluorescence.
Sequence of Sterol 14-alpha demethylase (Trypanosoma cruzi (strain CL Brener)) (Q7Z1V1 whole entry, looked up): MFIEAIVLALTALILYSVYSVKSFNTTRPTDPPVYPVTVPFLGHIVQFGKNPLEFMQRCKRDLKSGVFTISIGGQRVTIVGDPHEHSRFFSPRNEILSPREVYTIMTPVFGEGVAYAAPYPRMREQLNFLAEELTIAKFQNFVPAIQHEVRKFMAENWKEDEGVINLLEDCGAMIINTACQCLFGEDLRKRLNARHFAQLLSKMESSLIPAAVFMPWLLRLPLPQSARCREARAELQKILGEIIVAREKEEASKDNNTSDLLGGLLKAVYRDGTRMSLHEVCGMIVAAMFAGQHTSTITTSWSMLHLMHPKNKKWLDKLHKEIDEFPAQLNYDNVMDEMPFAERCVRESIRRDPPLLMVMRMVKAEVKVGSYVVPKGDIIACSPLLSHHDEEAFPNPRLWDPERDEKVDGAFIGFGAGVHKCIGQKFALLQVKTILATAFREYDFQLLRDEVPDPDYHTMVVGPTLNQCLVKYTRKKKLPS
For the compound `O=C(Nc1ccc(Br)c(Cl)c1)Nc1ccc2c(c1)OCO2`, the IC50 was > 100 µM (inactive).

Turning to `COc1ccc(S(=O)(=O)NCc2ccc(-c3ccc(CN(C)CCO)cc3)cc2)cc1`, the concentration for half-maximal inhibition (IC50) is 16 µM.

Consider `O=C(NC1CCN(C2Cc3ccc(NS(=O)(=O)c4cc(F)cc(F)c4)cc3C2)CC1)C1CC1` (stereo unspecified), for which the IC50 is 50 µM.

Turning to `CNC(=O)C1Cc2ccccc2N1C(=O)Cc1ccccc1` (stereo unspecified), the IC50 was > 100 µM (inactive).

As for `CCOc1ccccc1C(=O)Nc1nnc(-c2ccc3c(c2)OCO3)s1`, the IC50 was > 100 µM (inactive).

Take `O=C(NCc1nnc2n1CCCCC2)c1csc(-c2ccccc2)n1`: the IC50 is > 100 µM (inactive).

With `Cc1ccc(NC(C)C(=O)Nc2ccc(C#N)cc2)cc1S(=O)(=O)N1CCCCC1` (stereo unspecified), the IC50 is 16 µM.

As to `CCN(CC)c1nc(Nc2ccncc2)nc2ccccc12`, the IC50 is > 100 µM (inactive).

As for `CCc1nn(-c2ncc(F)c(NC(C)C)n2)c(N)c1C1CCCCC1`, the IC50 is > 100 µM (inactive).

As for `O=C(Nc1nc(-c2ccccn2)cs1)c1ccccc1-n1cnnn1`, the IC50 is > 100 µM (inactive).

`Cc1cc(C)n(-c2nc(NC(C)C)nc(NC(C)(C)C)n2)n1`: the IC50 was > 100 µM (inactive).

`CC(C)n1c(-c2nonc2N)nc2cccc(OCCN3CCCC3)c21`: the IC50 was 40 µM.

Consider `COc1ccc(OC)c2c(=O)c(Cc3ccccc3)c(C)[nH]c12`, for which the IC50 is > 100 µM (inactive).

Take `COc1ccc(C(=O)Nc2c(C)nn(COc3cccc(C(F)(F)F)c3)c2C)cc1`: the IC50 was 13 µM.

Regarding `O=C(NCCNc1noc(-c2ccc([N+](=O)[O-])cc2)n1)c1ccc(Cl)cc1`, the IC50 is > 100 µM (inactive).

Regarding `CCCc1cc(C(=O)Nc2ncc(-c3cccc(Br)c3)n2C)n[nH]1`, the IC50 is 25 µM.

Turning to `CC(C)(C)C(O)(CCc1ccc(Cl)cc1)Cn1cncn1` (stereo unspecified), the IC50 is 0.13 µM.

As to `COc1ccc(NS(=O)(=O)c2cc(NC(=O)Cc3ccc(C)cc3)ccc2N2CCOCC2)cc1`, the IC50 was > 100 µM (inactive).

Turning to `COCCn1cnc2cc(NC(=O)C3CCCCC3)cc(C(=O)N3CCc4sccc4C3)c21`, the IC50 was 50 µM.

Regarding `COc1ccc(C2CC(c3ccc(NS(C)(=O)=O)cc3)=NN2C(=O)c2cccs2)cc1OC` (stereo unspecified), the IC50 was 13 µM.

On to `COc1cccc(CCNC(=O)C(c2cn[nH]c2)N2CCN(c3ccc(Cl)cc3)CC2)c1` (stereo unspecified), for which the IC50 was 0.063 µM.

Take `O=C(CN(Cc1ccccn1)Cc1ccccn1)NCc1csc(-c2cccs2)n1`: the IC50 is 40 µM.

With `C[C@@H](Oc1cc(-n2cnc3ccc(O[C@H]4CCNC4)cc32)sc1C(N)=O)c1ccccc1Cl`, the IC50 was 1.3 µM.

With `CC(C)COC(=O)Nc1ccc(N2CCC(CNS(=O)(=O)c3ccccc3)CC2)c(F)c1`, the IC50 was 2 µM.

Take `CCCNC(=O)Nc1cccc(-c2nc3ncccc3o2)c1`: the IC50 is > 100 µM (inactive).

In the case of `CN(C)c1ccc(N)cc1CN(CC1CCCO1)S(C)(=O)=O` (stereo unspecified), the IC50 was > 100 µM (inactive).

Turning to `CNS(=O)(=O)c1ccccc1Nc1nc(Nc2ccnn2C)ncc1Cl`, the IC50 is 32 µM.

In the case of `CC(C)c1cc(C(=O)N2CCCC(c3cc4ncccc4[nH]3)C2)on1` (stereo unspecified), the IC50 is 50 µM.

Regarding `COc1ccc(-c2nc3ccncc3c(=O)n2CCOc2ccccc2)cc1`, the half-inhibitory concentration (IC50) is 0.04 µM.

`CN1CCCN(C(=O)c2ccc(N3CCCC3)cc2Cl)CC1`: the IC50 was > 100 µM (inactive).

In the case of `COc1ccc2nccc([C@H](O)CN3CC[C@H](NC(=O)c4ccc(Br)cc4)[C@@H](O)C3)c2n1`, the IC50 is 6.3 µM.

For `Cc1ccc(C)c(CN2C(=O)NC3(CCc4ccccc43)C2=O)c1` (stereo unspecified), the IC50 was 40 µM.

As to `CC(c1ccc2c(c1)CCCC2)N(C)c1ncc2c(N)nc(N)nc2n1` (stereo unspecified), the IC50 is 25 µM.

Regarding `CN(Cc1ccc(C(N)=O)cc1)C(c1ccc(F)cc1)c1cccnc1` (stereo unspecified), the IC50 is 0.1 µM.

With `Cc1ccc(Nc2nc(N)nc(CNC(c3nc4ccccc4[nH]3)C(C)C)n2)cc1` (stereo unspecified), the IC50 was 50 µM.

In the case of `O=c1[nH]ccc2ccc(-c3ccncc3)cc12`, the IC50 was 0.016 µM.
